Source: patent US20240360151A1 (SANOFI, priority 2023, published 2024)

Key:
[1] = tested on: NF-kB pathway (TNF-α secretion by THP-1 cells); assay: TNF-α secretion assay in LPS-stimulated THP-1 cells, Lumit immunoassay; format: cell-based, human; conditions: Homo sapiens, THP-1, 3 h, monocytic THP-1 cells, LPS 10 ng/mL, relative IC50, 10 concentrations, geometric mean
In short: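 TNF-α release was quantified directly in the cell plate by Lumit immunoassay after a 3-h, 10 ng/mL LPS trigger of compound-treated THP-1 cells (RPMI, 5% FBS). Percent inhibition versus no-compound and unstimulated controls fed a 4-parameter logistic fit over 10 concentrations, giving geometric-mean relative IC50.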

NLRP3 inflammasome = biological target: T1, NLRP3 inflammasome (Homo sapiens, UniProt Q96P20); assay: IL-1β secretion assay (NLRP3 IC50) in LPS-primed, nigericin-activated THP-1 cells, HTRF; format: cell-based; conditions: monocytic THP-1 cells; LPS 10 ng/mL 3 h priming, then compound + nigericin 10 μM 2 h; relative IC50, 10 concentrations, geometric mean
T1 construct: endogenous in cells; host or cells: THP-1 monocytic cells
In short: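 IL-1β in supernatant read by HTRF after 2 h co-incubation of compound (0.1% DMSO, 10 concentrations, 1:3 series) with nigericin at 10 μM final, following 3 h LPS (10 ng/mL) priming of THP-1 monocytes at 37° C. Inhibition normalised to unactivated and no-compound controls; geometric-mean relative IC50 from 4-parameter logistic model.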

T1 sequence (Q96P20 whole entry): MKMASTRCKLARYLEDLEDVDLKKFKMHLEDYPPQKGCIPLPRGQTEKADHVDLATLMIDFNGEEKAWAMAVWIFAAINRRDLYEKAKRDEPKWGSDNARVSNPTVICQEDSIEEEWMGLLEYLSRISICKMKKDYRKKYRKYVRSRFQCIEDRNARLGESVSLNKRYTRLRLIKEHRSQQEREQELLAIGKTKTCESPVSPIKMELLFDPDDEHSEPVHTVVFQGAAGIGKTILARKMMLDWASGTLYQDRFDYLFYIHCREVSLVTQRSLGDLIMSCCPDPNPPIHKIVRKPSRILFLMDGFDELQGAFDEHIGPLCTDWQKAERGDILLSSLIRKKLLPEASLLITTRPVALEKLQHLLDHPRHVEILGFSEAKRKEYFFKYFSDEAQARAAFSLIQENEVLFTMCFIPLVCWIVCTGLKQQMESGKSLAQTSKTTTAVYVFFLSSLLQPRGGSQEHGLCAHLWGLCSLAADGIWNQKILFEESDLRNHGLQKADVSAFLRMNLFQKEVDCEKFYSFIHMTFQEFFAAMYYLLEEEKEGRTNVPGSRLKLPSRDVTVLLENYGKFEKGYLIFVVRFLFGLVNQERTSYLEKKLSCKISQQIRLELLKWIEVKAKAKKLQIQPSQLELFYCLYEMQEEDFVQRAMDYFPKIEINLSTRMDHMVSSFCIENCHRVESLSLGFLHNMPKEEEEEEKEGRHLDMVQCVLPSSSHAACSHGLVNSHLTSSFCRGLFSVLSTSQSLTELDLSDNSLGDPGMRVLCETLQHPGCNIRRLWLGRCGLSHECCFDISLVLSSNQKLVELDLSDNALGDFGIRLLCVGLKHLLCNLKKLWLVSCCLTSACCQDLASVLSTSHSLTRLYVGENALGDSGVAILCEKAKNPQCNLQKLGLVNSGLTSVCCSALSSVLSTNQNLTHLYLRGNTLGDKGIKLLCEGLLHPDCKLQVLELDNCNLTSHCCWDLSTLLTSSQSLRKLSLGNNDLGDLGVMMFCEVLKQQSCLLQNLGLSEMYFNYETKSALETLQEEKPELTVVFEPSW

Row | SMILES | IC50 [1] | IC50 (NLRP3 inflammasome)
1 | Cc1cc(C)c(-c2ccc(N3CCC(CO)C3=O)nn2)c(O)c1 (stereo not drawn) [Example 122, 1-[6-(2-hydroxy-4,6-dimethyl-phenyl)pyridazin-3-yl]-3-(hydroxymethyl) pyrrolidin-2-one] | > 10000 nM | 149 nM
2 | CCC(=O)C1CN(c2ccc(-c3c(C)cc(C)cc3O)nn2)CCO1 (stereo not drawn) [Example 126, 1-[4-[6-(2-hydroxy-4,6-dimethylphenyl)pyridazin-3-yl]morpholin-2-yl]propan-1-one] | > 10000 nM | 484 nM
3 | CC(=O)NC[C@@H]1COCCN1c1ccc(-c2c(C)cc(C)cc2O)nn1 [Example 129, N-[[(3R)-4-[6-(2-hydroxy-4,6-dimethyl-phenyl)pyridazin-3-yl]morpholin-3-yl]methyl]acetamide] | > 10000 nM | 665 nM
4 | Cc1cc(Cl)cc(O)c1-c1ccc(N2C[C@@H](O)CC2=O)nn1 [Example 130, (4S)-1-[6-(4-chloro-2-hydroxy-6-methyl-phenyl)pyridazin-3-yl]-4-hydroxy-pyrrolidin-2-one] | > 10000 nM | 99 nM
5 | Cc1cc(C)c(-c2ccc(N3C[C@@H](N)CC3=O)nn2)c(O)c1 [Example 131, (4S)-4-amino-1-[6-(2-hydroxy-4,6-dimethyl-phenyl)pyridazin-3-yl]pyrrolidin-2-one] | > 10000 nM | 387 nM
6 | Cc1cc(C(F)(F)F)cc(O)c1-c1ccc(N2C[C@H](O)CC2=O)nn1 [Example 132, (4R)-4-hydroxy-1-[6-[2-hydroxy-6-methyl-4-(trifluoromethyl)phenyl]pyridazin-3-yl]pyrrolidin-2-one] | > 10000 nM | 362 nM
7 | Cc1ccc(C)c(-c2ccc(N3CCO[C@H](CO)C3)nn2)c1O [Example 141, 2-[6-[(2S)-2-(hydroxymethyl)morpholin-4-yl]pyridazin-3-yl]-3,6-dimethylphenol] | > 10000 nM | 131 nM
8 | Cc1ccc(-c2nnc(N3CCO[C@H](CO)C3)cc2C(F)(F)F)c(O)c1 [Example 155, 2-[6-[(2S)-2-(hydroxymethyl)morpholin-4-yl]-4-(trifluoromethyl)pyridazin-3-yl]-5-methyl-phenol] | > 10000 nM | 461 nM
9 | OC[C@@H]1CN(c2cc(C(F)(F)F)c(-c3ccc(Cl)cc3O)nn2)CCO1 [Example 160, 5-chloro-2-[6-[(2S)-2-(hydroxymethyl)morpholin-4-yl]-4-(trifluoromethyl)pyridazin-3-yl]phenol] | > 10000 nM | 171 nM
10 | Oc1cc(Cl)cc(Cl)c1-c1ccc(N2CCOC(CF)C2)nn1 (stereo not drawn) [Example 161, 3,5-dichloro-2-[6-[2-(fluoromethyl)morpholin-4-yl]pyridazin-3-yl]phenol] | > 10000 nM | 28 nM
11 | Cc1cc(C)c(-c2ccc(N3CCOc4ccc(O)cc43)nn2)c(O)c1 [Example 162, 4-[6-(2-hydroxy-4,6-dimethyl-phenyl)pyridazin-3-yl]-2,3-dihydro-1,4-benzoxazin-6-ol] | > 10000 nM | 10 nM
12 | CC(=O)NC[C@@H]1CCCN(c2ccc(-c3c(C)cc(C(F)(F)F)cc3O)nn2)C1 [Example 164, N-[[(3S)-1-[6-[2-hydroxy-6-methyl-4-(trifluoromethyl)phenyl]pyridazin-3-yl]-3-piperidyl]methyl]acetamide] | > 10000 nM | 81 nM
13 | [2H]C([2H])(O)[C@@H]1CN(c2ccc(-c3c(C)cc(C)cc3O)nn2)CCO1 [Example 165, 2-[6-[(2S)-2-[dideuterio(hydroxy)methyl]morpholin-4-yl]pyridazin-3-yl]-3,5-dimethylphenol] | 5620 nM | 42 nM
14 | CC(=O)NC[C@H]1CCCN(c2ccc(-c3c(C)cc(C(F)(F)F)cc3O)nn2)C1 [Example 167, N-[[(3R)-1-[6-[2-hydroxy-6-methyl-4-(trifluoromethyl)phenyl]pyridazin-3-yl]-3-piperidyl]methyl]acetamide] | > 10000 nM | 309 nM
15 | Cc1cc(C)c(-c2ccc(N3C[C@@H](CO)O[C@@H](CO)C3)nn2)c(O)c1 [Example 173, 2-[6-[(2R,6S)-2,6-bis(hydroxymethyl)morpholin-4-yl]pyridazin-3-yl]-3,5-dimethyl-phenol] | > 10000 nM | 40 nM
16 | Cc1cc(C)c(-c2ccc(N3CCOC(CF)C3)nn2)c(O)c1 (stereo not drawn) [Example 174, 2-[6-[2-(fluoromethyl)morpholin-4-yl]pyridazin-3-yl]-3,5-dimethyl-phenol] | > 10000 nM | 170 nM
17 | Cc1cc(C(F)(F)F)cc(O)c1-c1ccc(N2C[C@@H](CO)O[C@@H](CO)C2)nn1 [Example 178, 2-[6-[(2R,6S)-2,6-bis(hydroxymethyl)morpholin-4-yl]pyridazin-3-yl]-3-methyl-5-(trifluoromethyl)phenol] | > 10000 nM | 7 nM

Continued, values first:

Row | IC50 [1] | IC50 (NLRP3 inflammasome) | SMILES
18 | > 10000 nM | 125 nM | Cc1cc(Cl)cc(O)c1-c1ccc(N2CC[C@H](CO)C2)nn1 [Example 127, 5-chloro-2-[6-[(3S)-3-(hydroxymethyl)pyrrolidin-1-yl]pyridazin-3-yl]-3-methyl-phenol]
19 | > 10000 nM | 68 nM | Cc1cc(-c2c(C)cc(Cl)cc2O)nnc1N1CCO[C@H](CO)C1 [Example 133, 5-chloro-2-[6-[(2S)-2-(hydroxymethyl)morpholin-4-yl]-5-methyl-pyridazin-3-yl]-3-methyl-phenol]
20 | > 10000 nM | 71 nM | Cc1cc(C(F)F)cc(O)c1-c1ccc(N2CCO[C@H](CO)C2)nn1 [Example 134, 5-(difluoromethyl)-2-[6-[(2S)-2-(hydroxymethyl)morpholin-4-yl]pyridazin-3-yl]-3-methyl-phenol]
21 | > 10000 nM | 151 nM | Cc1ccc(-c2nnc(N3CCO[C@H](CO)C3)cc2C(F)F)c(O)c1 [Example 144, 2-[4-(difluoromethyl)-6-[(2S)-2-(hydroxymethyl)morpholin-4-yl]pyridazin-3-yl]-5-methyl-phenol]
22 | > 10000 nM | 34 nM | OC[C@@H]1CN(c2cc(C(F)F)c(-c3ccc(Cl)cc3O)nn2)CCO1 [Example 145, 5-chloro-2-[4-(difluoromethyl)-6-[(2S)-2-(hydroxymethyl)morpholin-4-yl]pyridazin-3-yl]phenol]
23 | > 10000 nM | 52 nM | Cc1cc(N2CCO[C@H](CO)C2)nnc1-c1c(C)cc(Cl)cc1O [Example 149, 5-chloro-2-[6-[(2S)-2-(hydroxymethyl)morpholin-4-yl]-4-methyl-pyridazin-3-yl]-3-methyl-phenol]
24 | > 10000 nM | 47 nM | Cc1cc(O)c(-c2ccc(N3CCO[C@H](CO)C3)nn2)c(C(F)F)c1 [Example 153, 3-(difluoromethyl)-2-[6-[(2S)-2-(hydroxymethyl)morpholin-4-yl]pyridazin-3-yl]-5-methyl-phenol]
25 | > 10000 nM | 85 nM | Cc1cc(C)c(-c2cc(C#N)c(N3CCO[C@H](CO)C3)nn2)c(O)c1 [Example 158, 6-(2-hydroxy-4,6-dimethyl-phenyl)-3-[(2S)-2-(hydroxymethyl)morpholin-4-yl]pyridazine-4-carbonitrile]
26 | > 10000 nM | 43 nM | Cc1cc(C(F)(F)F)cc(O)c1-c1cc(C#N)c(N2CCO[C@H](CO)C2)nn1 [Example 159, 3-[(2S)-2-(hydroxymethyl)morpholin-4-yl]-6-[2-hydroxy-6-methyl-4-(trifluoromethyl)phenyl]pyridazine-4-carbonitrile]
27 | > 10000 nM | 7 nM | Cc1cc(Cl)cc(O)c1-c1cc(C#N)c(N2CCO[C@H](CO)C2)nn1 [Example 163, 6-(4-chloro-2-hydroxy-6-methyl-phenyl)-3-[(2S)-2-(hydroxymethyl)morpholin-4-yl]pyridazine-4-carbonitrile]
28 | > 10000 nM | 8 nM | [2H]C([2H])(O)[C@@H]1CN(c2ccc(-c3c(C)cc(Cl)cc3O)nn2)CCO1 [Example 169, 5-chloro-2-[6-[(2S)-2-[dideuterio(hydroxy)methyl]morpholin-4-yl]pyridazin-3-yl]-3-methylphenol]
29 | > 10000 nM | 12 nM | Cc1cc(C)c(-c2cc(C(F)F)c(N3CCO[C@H](CO)C3)nn2)c(O)c1 [Example 170, 2-[5-(difluoromethyl)-6-[(2S)-2-(hydroxymethyl)morpholin-4-yl]pyridazin-3-yl]-3,5-dimethyl-phenol]
30 | > 10000 nM | 7 nM | Cc1cc(Cl)cc(O)c1-c1cc(C(F)F)c(N2CCO[C@H](CO)C2)nn1 [Example 171, 5-chloro-2-[5-(difluoromethyl)-6-[(2S)-2-(hydroxymethyl)morpholin-4-yl]pyridazin-3-yl]-3-methyl-phenol]
31 | > 10000 nM | 36 nM | Cc1cc(O)c(-c2ccc(N3CCO[C@H](CO)C3)nn2)c(Cl)c1 [Example 172, 3-chloro-2-[6-[(2S)-2-(hydroxymethyl)morpholin-4-yl]pyridazin-3-yl]-5-methyl-phenol]
32 | 7380 nM | 91 nM | Cc1cc(O)c(-c2nnc(N3CCO[C@H](CO)C3)cc2C)c(Cl)c1 [Example 177, 3-chloro-2-[6-[(2S)-2-(hydroxymethyl)morpholin-4-yl]-4-methyl-pyridazin-3-yl]-5-methyl-phenol]
33 | > 10000 nM | 66 nM | Cc1cc(C)c(-c2cc(CO)c(N3CCO[C@H](CO)C3)nn2)c(O)c1 [Example 187, 2-[5-(hydroxymethyl)-6-[(2S)-2-(hydroxymethyl)morpholin-4-yl]pyridazin-3-yl]-3,5-dimethyl-phenol]
